For nine compounds, IC50, AC50 and EC50 results are on record in ChEMBL document CHEMBL1201862, “PubChem BioAssay data set” (2004).

Activity calls are given as the source filed them.

Assay [1] concerns the target T1, Nuclear receptor subfamily 0 group B member 1 (Homo sapiens, UniProt P51843).
T1 sequence (P51843 whole entry): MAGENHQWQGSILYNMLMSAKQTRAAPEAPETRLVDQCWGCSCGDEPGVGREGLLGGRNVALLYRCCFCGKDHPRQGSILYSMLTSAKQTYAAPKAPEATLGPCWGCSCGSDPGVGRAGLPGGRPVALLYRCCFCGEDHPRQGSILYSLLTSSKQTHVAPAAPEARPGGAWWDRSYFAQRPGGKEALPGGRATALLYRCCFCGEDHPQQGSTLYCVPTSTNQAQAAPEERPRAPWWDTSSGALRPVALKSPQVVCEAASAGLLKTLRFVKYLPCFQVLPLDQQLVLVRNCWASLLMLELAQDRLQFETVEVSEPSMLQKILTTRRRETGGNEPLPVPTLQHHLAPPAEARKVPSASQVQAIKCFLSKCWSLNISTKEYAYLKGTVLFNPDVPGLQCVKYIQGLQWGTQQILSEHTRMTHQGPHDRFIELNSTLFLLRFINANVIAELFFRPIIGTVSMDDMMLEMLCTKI
Put plainly: Luminescence-based cell-based high throughput dose response assay for inhibitors of the orphan nuclear receptor subfamily 0, group B, member 1 (DAX1; NR0B1). [Related pubchem assays (depositor defined):AID504766, AID504790]. Format: functional.

In another assay the test system is HEK293. Put plainly: cells. Format: functional, cell-based. To be noted: Homo sapiens.
Assay [2] deals with Tyrosine-protein phosphatase non-receptor type 5 (Homo sapiens, UniProt P54829). Put plainly: STEP phosphatase inhibitors, confirmation, biochemical, fluorescence intensity, uHTS hits (AID 602372). Type of assay: functional. Conditions: read-out: IC50_Mean.
Chain of Tyrosine-protein phosphatase non-receptor type 5 (P54829 whole entry): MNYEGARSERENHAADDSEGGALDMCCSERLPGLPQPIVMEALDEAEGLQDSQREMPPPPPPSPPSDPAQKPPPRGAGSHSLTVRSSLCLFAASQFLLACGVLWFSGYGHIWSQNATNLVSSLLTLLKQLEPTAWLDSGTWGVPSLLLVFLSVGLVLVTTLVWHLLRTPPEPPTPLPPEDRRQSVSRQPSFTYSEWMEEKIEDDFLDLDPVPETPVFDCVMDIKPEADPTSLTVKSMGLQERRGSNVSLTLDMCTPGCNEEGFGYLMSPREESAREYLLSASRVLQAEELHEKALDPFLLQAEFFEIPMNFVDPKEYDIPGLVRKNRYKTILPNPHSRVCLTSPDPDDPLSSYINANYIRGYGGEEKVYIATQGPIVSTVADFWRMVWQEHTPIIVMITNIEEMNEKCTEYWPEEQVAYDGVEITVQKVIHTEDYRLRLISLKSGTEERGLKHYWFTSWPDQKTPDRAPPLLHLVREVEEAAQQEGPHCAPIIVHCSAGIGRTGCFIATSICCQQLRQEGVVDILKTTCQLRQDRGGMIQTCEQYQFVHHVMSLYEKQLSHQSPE
Assay [3] concerns the target Tyrosine-protein phosphatase non-receptor type 11 (Homo sapiens, UniProt Q06124). Put plainly: SHP2 phosphatase inhibition, dose response, selectivity assay for STEP inhibitor project, biochemical (AID 602367). Format: functional. To be noted: read-out: IC50_Mean.
Assay [4] has as its target Dual specificity protein phosphatase 3 (Homo sapiens, UniProt P51452). Put plainly: VHR phosphatase inhibition, dose response, selectivity assay for STEP inhibitor project, biochemical (AID 602374). Type of assay: functional. Conditions: read-out: IC50_Mean.
In assay [5] the target is T2, Sentrin-specific protease 8 (Homo sapiens, UniProt Q96LD8).
T2 sequence (Q96LD8 whole entry): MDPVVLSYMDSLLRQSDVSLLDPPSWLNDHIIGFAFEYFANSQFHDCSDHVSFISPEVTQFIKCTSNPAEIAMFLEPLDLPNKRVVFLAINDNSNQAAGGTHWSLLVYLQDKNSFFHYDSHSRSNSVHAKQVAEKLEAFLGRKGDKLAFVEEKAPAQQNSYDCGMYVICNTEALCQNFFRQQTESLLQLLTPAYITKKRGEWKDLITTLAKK
Type of assay: functional.

In assay [6] the target is Mitochondrial peptide methionine sulfoxide reductase (Bos taurus, UniProt P54149). Type of assay: functional.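 Also: absorbance read-out, biochemical high-throughput dose-response screen for MsrA inhibitors, confirmatory; recombinant bovine MsrA coupled to E. coli TrxB with NADPH and selenocystamine; potency is for inhibitors of MsrA activity on DMSO substrate.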
Chain of Mitochondrial peptide methionine sulfoxide reductase (P54149 whole entry): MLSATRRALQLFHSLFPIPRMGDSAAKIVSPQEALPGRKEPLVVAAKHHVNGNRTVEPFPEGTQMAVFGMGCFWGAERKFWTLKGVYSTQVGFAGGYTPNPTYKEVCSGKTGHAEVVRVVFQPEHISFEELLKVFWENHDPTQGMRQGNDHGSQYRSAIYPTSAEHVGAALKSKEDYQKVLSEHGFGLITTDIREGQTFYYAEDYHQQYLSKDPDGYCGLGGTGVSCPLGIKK
The next assay has as its system INS1. In words: beta cell apoptosis inhibitors, cytokine rescue, dose response, luminescence, retest (AID 449756).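 Also: cell death triggered by IL-1 beta plus TNF-alpha plus IFN-gamma mixture; protective hits raise ATP signal compared with cytokine alone wells.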 Format: functional, cell-based. Conditions: Rattus norvegicus.
Assay [7] has as its target T2, Sentrin-specific protease 8. Format: functional. This is another data set of the same source.
The nature of assay [8]: NIH-3T3 fibroblast cytotoxicity, dose response, cytotoxicity control, cell-based, fluorescence, Alamar Blue, secondary assay (AID 2327).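 Also: NIH-3T3 mouse fibroblasts cultured with fluconazole at 8 µg/mL.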 Format: functional. In general terms: The colour change of resazurin is a common sign of viable cells or microbes.
Assay [9] in a line: C. albicans growth with fluconazole, confirmation, fluorescence, retest (AID 2467). Format: functional, cell-based.
Assay [10] has as its target T3, Serine/threonine-protein phosphatase (Candida dubliniensis (strain CD36 / CBS 7987 / NCPF 3949 / NRRLY-17841) (Yeast), UniProt B9W6M3).
T3 sequence (B9W6M3 whole entry): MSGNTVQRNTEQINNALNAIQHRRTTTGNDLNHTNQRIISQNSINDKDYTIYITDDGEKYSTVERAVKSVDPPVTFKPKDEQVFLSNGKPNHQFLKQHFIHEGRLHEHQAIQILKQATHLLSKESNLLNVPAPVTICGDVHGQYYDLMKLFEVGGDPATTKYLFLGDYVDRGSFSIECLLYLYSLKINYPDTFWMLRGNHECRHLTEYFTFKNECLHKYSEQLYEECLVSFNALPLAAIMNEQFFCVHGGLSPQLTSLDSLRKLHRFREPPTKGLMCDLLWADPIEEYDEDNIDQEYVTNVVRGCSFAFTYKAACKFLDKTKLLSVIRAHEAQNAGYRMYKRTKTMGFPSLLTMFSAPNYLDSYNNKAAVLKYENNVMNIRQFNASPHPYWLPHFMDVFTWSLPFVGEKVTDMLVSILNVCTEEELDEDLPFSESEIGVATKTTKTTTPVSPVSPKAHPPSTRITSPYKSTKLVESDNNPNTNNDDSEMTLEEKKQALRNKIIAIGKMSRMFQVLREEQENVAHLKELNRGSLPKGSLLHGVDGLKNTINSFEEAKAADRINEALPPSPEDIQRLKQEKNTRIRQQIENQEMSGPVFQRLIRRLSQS
In words: calcineurin pathway inhibitors in yeast reporter, dose response, S. cerevisiae, CDRE-lacZ, luminescence, secondary (AID 2388).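 Also: yeast reporter cells carrying a calcineurin-responsive lacZ construct stimulated with calcium chloride; luminescent beta-galactosidase reporter signal in whole cells rather than isolated phosphatase activity; potency for inhibition where a drop in reporter signal means calcineurin blockade.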 Type of assay: functional, cell-based.

For assay [11], the target named is ATP-dependent molecular chaperone HSP82 (Candida albicans (strain WO-1) (Yeast), UniProt C4YTQ8). Put plainly: loss of DOC-induced GRE-beta-galactosidase reporter signal, dose response, Hsp90 inhibitor project, S. cerevisiae, luminescence (AID 2400).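 Also: beta-galactosidase luminescence from glucocorticoid response element reporter as proxy for Hsp90 function; inhibitor potency where signal loss means Hsp90 inhibition.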 Type of assay: functional, cell-based.
Chain of ATP-dependent molecular chaperone HSP82 (C4YTQ8 whole entry): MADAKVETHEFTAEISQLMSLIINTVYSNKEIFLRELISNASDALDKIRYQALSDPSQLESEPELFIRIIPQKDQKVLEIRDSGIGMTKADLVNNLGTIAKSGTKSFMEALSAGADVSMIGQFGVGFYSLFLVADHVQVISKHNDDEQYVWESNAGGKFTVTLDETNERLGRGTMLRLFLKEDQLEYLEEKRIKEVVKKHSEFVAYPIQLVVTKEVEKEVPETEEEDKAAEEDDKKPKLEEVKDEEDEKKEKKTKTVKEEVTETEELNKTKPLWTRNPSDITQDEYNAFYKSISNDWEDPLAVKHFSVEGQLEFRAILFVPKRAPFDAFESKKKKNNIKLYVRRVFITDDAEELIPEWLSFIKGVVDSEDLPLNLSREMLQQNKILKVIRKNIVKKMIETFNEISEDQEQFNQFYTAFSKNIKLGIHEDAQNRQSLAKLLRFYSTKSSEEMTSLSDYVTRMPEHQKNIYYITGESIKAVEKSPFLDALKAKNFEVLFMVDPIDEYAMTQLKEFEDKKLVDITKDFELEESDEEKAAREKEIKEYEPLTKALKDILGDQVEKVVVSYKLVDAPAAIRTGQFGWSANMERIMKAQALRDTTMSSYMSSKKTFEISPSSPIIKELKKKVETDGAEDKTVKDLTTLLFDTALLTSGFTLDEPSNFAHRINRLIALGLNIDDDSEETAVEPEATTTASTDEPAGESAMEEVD
The target in assay [12] is T4, Tyrosine-protein phosphatase non-receptor type 22 (Homo sapiens, UniProt Q9Y2R2).
T4 sequence (Q9Y2R2 whole entry): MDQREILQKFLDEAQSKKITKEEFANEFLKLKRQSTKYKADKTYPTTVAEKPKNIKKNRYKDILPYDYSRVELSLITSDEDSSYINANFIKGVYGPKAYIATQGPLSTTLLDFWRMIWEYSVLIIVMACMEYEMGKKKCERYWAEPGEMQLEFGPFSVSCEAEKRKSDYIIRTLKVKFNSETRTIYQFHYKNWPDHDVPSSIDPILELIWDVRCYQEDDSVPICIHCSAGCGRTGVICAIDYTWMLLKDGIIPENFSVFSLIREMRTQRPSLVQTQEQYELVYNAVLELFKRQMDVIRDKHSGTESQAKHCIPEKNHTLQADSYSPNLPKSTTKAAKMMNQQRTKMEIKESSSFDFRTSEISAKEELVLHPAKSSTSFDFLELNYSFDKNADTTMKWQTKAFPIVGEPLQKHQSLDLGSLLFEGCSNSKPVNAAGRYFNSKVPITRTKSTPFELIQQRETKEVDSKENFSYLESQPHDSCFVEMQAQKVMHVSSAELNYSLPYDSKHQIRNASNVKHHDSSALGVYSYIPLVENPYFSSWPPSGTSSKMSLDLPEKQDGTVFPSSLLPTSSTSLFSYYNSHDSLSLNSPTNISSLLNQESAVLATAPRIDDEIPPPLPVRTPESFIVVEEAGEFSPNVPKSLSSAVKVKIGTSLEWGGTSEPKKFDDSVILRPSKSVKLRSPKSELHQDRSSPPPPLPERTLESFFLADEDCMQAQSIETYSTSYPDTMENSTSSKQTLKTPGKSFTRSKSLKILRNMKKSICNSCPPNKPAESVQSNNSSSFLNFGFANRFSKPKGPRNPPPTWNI
In words: LYP phosphatase inhibition for selectivity, dose response, selectivity assay for LMPTP inhibitor project, biochemical, fluorescence, LYP catalytic domain (AID 652006). Format: functional. Conditions: read-out: IC50_Mean.

Assay [13] deals with T5, Low molecular weight phosphotyrosine protein phosphatase (Homo sapiens, UniProt P24666).
T5 sequence (P24666 whole entry): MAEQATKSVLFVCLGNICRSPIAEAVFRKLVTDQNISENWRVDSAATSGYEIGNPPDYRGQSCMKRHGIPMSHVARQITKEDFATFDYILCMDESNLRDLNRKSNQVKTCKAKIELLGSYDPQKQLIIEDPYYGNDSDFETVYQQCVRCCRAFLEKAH
Type of assay: functional. To be noted: read-out: IC50_Mean.

In assay [14] the target is T5, Low molecular weight phosphotyrosine protein phosphatase. Type of assay: functional. To be noted: read-out: IC50_Mean. This is another data set of the same source.
The next assay has as its target T6, Leucine aminopeptidase (Plasmodium falciparum 3D7, UniProt Q8IL11).
T6 sequence (Q8IL11 whole entry): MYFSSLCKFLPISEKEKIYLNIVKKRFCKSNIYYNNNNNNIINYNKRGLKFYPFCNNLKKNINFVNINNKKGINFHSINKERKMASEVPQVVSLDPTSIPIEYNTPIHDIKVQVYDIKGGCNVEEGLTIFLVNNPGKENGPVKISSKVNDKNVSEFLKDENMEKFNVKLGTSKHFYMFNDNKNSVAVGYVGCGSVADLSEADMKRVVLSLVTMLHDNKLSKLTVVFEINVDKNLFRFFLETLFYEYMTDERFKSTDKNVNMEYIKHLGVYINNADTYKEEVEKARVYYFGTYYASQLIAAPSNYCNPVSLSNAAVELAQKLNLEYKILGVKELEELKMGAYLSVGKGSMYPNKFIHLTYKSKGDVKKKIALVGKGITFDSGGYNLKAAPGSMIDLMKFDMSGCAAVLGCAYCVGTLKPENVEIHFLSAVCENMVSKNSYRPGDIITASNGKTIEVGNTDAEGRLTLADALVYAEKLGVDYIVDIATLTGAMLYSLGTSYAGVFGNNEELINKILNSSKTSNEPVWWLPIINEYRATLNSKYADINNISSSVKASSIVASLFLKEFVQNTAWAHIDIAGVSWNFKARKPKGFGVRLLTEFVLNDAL
In words: P. falciparum M17LAP inhibitors, primary screen, biochemical, fluorogenic H-Leu-NHMec substrate, 1536-well (AID 1619). Format: functional.

Chain of Dual specificity protein phosphatase 3 (P51452 whole entry): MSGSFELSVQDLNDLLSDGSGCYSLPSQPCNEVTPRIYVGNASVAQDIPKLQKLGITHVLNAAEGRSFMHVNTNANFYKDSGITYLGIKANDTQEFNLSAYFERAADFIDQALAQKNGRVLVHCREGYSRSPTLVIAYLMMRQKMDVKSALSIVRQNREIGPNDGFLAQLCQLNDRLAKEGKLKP
Chain of Tyrosine-protein phosphatase non-receptor type 11 (Q06124 whole entry): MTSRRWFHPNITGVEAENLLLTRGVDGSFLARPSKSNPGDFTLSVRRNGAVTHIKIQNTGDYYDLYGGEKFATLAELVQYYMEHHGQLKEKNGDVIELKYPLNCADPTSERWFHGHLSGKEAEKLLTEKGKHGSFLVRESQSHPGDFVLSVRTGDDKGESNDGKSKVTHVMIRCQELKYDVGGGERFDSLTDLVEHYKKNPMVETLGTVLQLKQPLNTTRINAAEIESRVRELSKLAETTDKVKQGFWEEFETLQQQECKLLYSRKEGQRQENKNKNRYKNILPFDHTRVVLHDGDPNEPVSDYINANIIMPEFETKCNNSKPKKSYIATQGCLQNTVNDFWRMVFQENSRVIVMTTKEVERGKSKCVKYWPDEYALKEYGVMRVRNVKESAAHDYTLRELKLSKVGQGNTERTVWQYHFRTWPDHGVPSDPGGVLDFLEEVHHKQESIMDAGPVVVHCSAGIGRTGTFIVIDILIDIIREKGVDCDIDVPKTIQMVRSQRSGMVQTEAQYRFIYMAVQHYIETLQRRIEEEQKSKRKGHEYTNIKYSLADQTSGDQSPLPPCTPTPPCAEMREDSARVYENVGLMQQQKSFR

As to `COC(=O)c1sc(=S)n(Cc2ccccc2)c1C`, the IC50 (in [1]; in the assay on HEK293) was > 67.5 µM (inactive) in each case.
Consider `COCCN(C(=S)Nc1c(C)cc(C)cc1C)C(C)c1cccnc1` (stereo unspecified), for which the IC50 in assay [2] was > 80 µM (inactive); in assay [3] it was 1.71 µM (active); in assay [4], 0.696 µM (active).
Regarding `COC(=O)C1(Cc2ccc(O)cc2)OC(=O)C(O)=C1c1ccc(O)cc1` (stereo unspecified), the IC50 in [1] was > 67.5 µM (inactive); in the assay with HEK293, 56.1 µM (inactive).
Broadly, the AC50 is the concentration giving half of the maximal activity seen. For `CC(=O)NN1C(=O)c2ccc3c4c(ccc(c24)C1=O)C(=O)N(NC(C)=O)C3=O`, the IC50 in [5] was 0.445 µM (active); in assay [6] it was 76.8 µM (inactive); in assay [7], 0.0707 µM (active). Besides, the AC50 in the assay on INS1 is 0.652 µM (active).
The EC50 is the concentration giving half of the maximal effect. For `CCc1cc(-c2nnc(S)n2-c2ccccc2C)cs1`, the EC50 in assay [8] was > 150 µM (inactive); in assay [9], 0.363 µM (active); in assay [10], > 180 µM (inactive); in assay [11], > 160 µM (inactive).
As to `COCCNC(=O)C(c1ccc(Cl)cc1)N(Cc1ccco1)C(=O)CCC(=O)Nc1ccccn1` (stereo unspecified), the IC50 (in assay [1]; in the assay with HEK293) was > 67.5 µM (inactive) each time.
Turning to `COc1ccc(Nc2nc(NCc3cccs3)nc3ccsc23)cc1OC`, the IC50 is 22.7 µM (inactive) in assay [12], 11.6 µM (active) in assay [13] and 16.4 µM (active) in assay [14].
`Cc1[nH]c(C(=O)N/N=C/c2ccc(C(=O)O)cc2)c(C)c1C(=O)N/N=C/c1ccc(C(=O)O)cc1`: the IC50 in assay [6] is 114 µM (inactive); on Leucine aminopeptidase, 45.7 µM (active).
Take `Nc1ccc(C(=O)N/N=C\c2ccc(OC(=O)c3ccccc3Cl)cc2)cc1`: the EC50 in [8] is > 160 µM (inconclusive); in [9], 0.797 µM (active); in assay [10], > 180 µM (inactive); in [11] it was > 160 µM (inactive).
